In patent publication US10112940B2, “Histone demethylase inhibitors” (Celgene Quanticel Research, Inc., priority 2014, dated 2018):

Tests used:
JMJD2C = JMJD2C (Homo sapiens (Human), UniProt Q9H3R0); assay: JMJD2C in vitro enzyme inhibition assay (TR-FRET); format: biochemical; conditions: 0.3 nM JMJD2C, 300 nM H3K9me3-biotin peptide, 2 μM alpha-ketoglutaric acid, 30 minutes
Description: This assay determines the ability of a test compound to inhibit JMJD2C demethylase activity. Baculovirus expressed JMJD2C (GenBank Accession #BC143571, AA 2-372) was purchased from BPS Bioscience (Cat#50105).
The ability of test compounds to inhibit the activity of JMJD2C was determined in 384-well plate format under the following reaction conditions: 0.3 nM JMJD2C, 300 nM H3K9me3-biotin labeled peptide (Anaspec cat #64360), 2 μM alpha-ketoglutaric acid in assay buffer of 50 mM HEPES, pH7.3, 0.005% Brij35, 0.5 mM TCEP, 0.2 mg/ml BSA, 50 μM sodium L-ascorbate, and 2 μM ammonium iron(II) sulfate. Reaction product was determined quantitatively by TR-FRET after the addition of detection reagent Phycolink Streptavidin-allophycocyanin (Prozyme) and Europium-anti-di-methylated histone H3 lysine 9 (H3K9me2) antibody (PerkinElmer) in the presence of 5 mM EDTA in LANCE detection buffer (PerkinElmer) at a final concentration of 50 nM and 1 nM, respectively.
The assay reaction was initiated by the following: 2 μl of the mixture of 900 nM H3K9me3-biotin labeled peptide and 6 μM alpha-ketoglutaric acid with 2 μl of 11-point serial diluted inhibitor in 3% DMSO were added to each well of the plate, followed by the addition of 2 μl of 0.9 nM JMJD2C to initiate the reaction. The reaction mixture was incubated at room temperature for 30 minutes, and terminated by the addition of 6 μl of 5 mM EDTA in LANCE detection buffer containing 100 nM Phycolink Streptavidin-allophycocyanin and 2 nM Europium-anti-H3K9me2 antibody. Plates were read by EnVisionMultilabel Reader in TR-FRET mode (excitation at 320 nm, emission at 615 nm and 665 nm) after 1 hour incubation at room temperature. A ratio was calculated (665/615) for each well and fitted to determine inhibition constant (IC50).
The ability of the compounds disclosed herein to inhibit demethylase activity was quantified and the respective IC50 value was determined. Table 3 provides the IC50 values of various compounds disclosed herein.

[1] = test system: KYSE-150 esophageal carcinoma cell line; assay: In vitro cell-based assay: BrdU incorporation cell proliferation ELISA; parameters: species or system human; conditions: Homo sapiens, KYSE-150 cells, 168 hours compound incubation, read-out: Cellular IC50
Description: Cell lines tested include the JMJD2C gene amplified cell line KYSE-150. This is a quantitative ELISA assay measuring DNA incorporation of BrdU during S-phase as a direct readout of cellular proliferation.
Assay Principle: This is a colorimetric immunoassay for the quantification of cell proliferation. Cells treated for 168 hours with test compounds are assayed for their ability to go through S-phase as a measure of their proliferative potential.
Assay Method: The human KYSE-150 (SMAD4 mut, TP53 mut) esophageal carcinoma cell line was seeded at 2,000 cells/well on a 96-well tissue culture treated plate. After an overnight incubation, cells were treated with compound in an 11-point dilution series with final concentrations ranging from 100 μM to 2 nM. Cells were then incubated in the presence of compound for 168 hours. After compound incubation the cells were assayed using a BrdU Cell Proliferation ELISA (Roche). The cells were first incubated with BrdU labeling reagent for 2 hours. After 2 hours, the BrdU incorporated cells were fixed and denatured, probed with an anti-BrdU-Peroxidase antibody for 1.5 hours and washed. Finally, a tetramethylbenzidine peroxidase substrate was added to each well for 15 minutes followed by a H2SO4 stop solution. The plate was read at 450 nm, and the raw optical density data was transferred into XLFit (IDBS) for IC50 calculation using the formula: fit=(D+((Vmax*(x^n))/((x^n)+(Km^n))))
Table 4 provides the cellular IC50 values of various compounds disclosed herein.

Sequence of JMJD2C (Q9H3R0 2-372): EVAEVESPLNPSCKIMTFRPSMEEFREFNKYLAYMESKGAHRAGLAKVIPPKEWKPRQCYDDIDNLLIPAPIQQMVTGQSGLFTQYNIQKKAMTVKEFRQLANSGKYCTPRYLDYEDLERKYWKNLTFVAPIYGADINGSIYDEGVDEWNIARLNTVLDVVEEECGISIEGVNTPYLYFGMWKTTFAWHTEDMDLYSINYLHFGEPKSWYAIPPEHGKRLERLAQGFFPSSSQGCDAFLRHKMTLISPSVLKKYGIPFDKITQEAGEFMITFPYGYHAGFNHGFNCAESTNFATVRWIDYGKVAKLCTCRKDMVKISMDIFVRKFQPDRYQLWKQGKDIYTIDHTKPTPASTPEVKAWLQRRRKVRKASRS

Row | SMILES | IC50 (JMJD2C) [µM] | IC50 [1] [µM]
1 | C[C@@H](c1ccccc1)N(C)c1ccc(Oc2nc(O)c3ccncc3n2)cc1 [Example 51, 2-[4-[methyl-[(1S)-1-phenylethyl]amino]phenoxy]pyrido[3,4-d]pyrimidin-4-ol] | 0.1 to 1 | 1 to 10
2 | COc1cccc(N(C)c2ccc(Oc3nc(O)c4ccncc4n3)cc2)c1 [Example 17, 2-{4-[(3-Methoxy-phenyl)-methyl-amino]-phenoxy}-pyrido[3,4-d]pyrimidin-4-ol] | 0.1 to 1 | 
3 | COC(C)c1ccc(N(C)c2ccc(Oc3nc(O)c4ccncc4n3)cc2)cc1 (centres unmarked) [Example 36, 2-(4-{[4-(1-methoxy-ethyl)-phenyl]-methyl-amino}-phenoxy)-pyrido[3,4-d]pyrimidin-4-ol] | 0.1 to 1 | 0.1 to 1
4 | CC(C)c1ccc(N(C)c2ccc(Oc3nc(O)c4ccncc4n3)cc2)cc1 [Example 85, 2-[4-(N-methyl-4-propan-2-ylanilino)phenoxy]pyrido[3,4-d]pyrimidin-4-ol] | 1 to 10 | ≤ 0.1
5 | Oc1nc(Oc2ccc3cn(Cc4ccccc4)nc3c2)nc2cnccc12 [Example 12, 2-(2-Benzyl-2H-indazol-6-yloxy)-pyrido[3,4-d]pyrimidin-4-ol] | 0.1 to 1 | 1 to 10
6 | Oc1nc(Oc2ccc3nn(Cc4ccccc4)cc3c2)nc2cnccc12 [Example 14, 2-[2-Benzyl-2H-indazol-5-yloxy]pyridino[3,4-d]pyrimidin-4-ol] | 0.1 to 1 | 
7 | CN(c1ccc(Oc2nc(O)c3ccncc3n2)cc1)c1ccc(N2CCC(N)CC2)cc1 [Example 23, 2-(4-{[4-(4-amino-piperidin-1-yl)-phenyl]-methyl-amino}-phenoxy)-pyrido[3,4-d]pyrimidin-4-ol] | 0.1 to 1 | 1 to 10
8 | CN(Cc1ccccc1)c1cccc(Oc2nc(O)c3ccncc3n2)c1 [Example 9, 2-[3-(Benzyl-methyl-amino)-phenoxy]-pyrido[3,4-d]pyrimidin-4-ol] | 1 to 10 | 
9 | CC(C)c1cccc(N(C)c2ccc(Oc3nc(O)c4ccncc4n3)cc2)c1 [Example 93, 2-[4-(N-methyl-3-propan-2-ylanilino)phenoxy]pyrido[3,4-d]pyrimidin-4-ol] | 0.1 to 1 | 
10 | CN(c1ccccc1)c1ccc(Oc2nc(O)c3ccncc3n2)cc1F [Example 10, 2-[3-Fluoro-4-(methyl-phenyl-amino)-phenoxy]-pyrido[3,4-d]pyrimidin-4-ol] | 0.1 to 1 | 
11 | CC(C)c1ccc(N(CC(F)(F)F)c2ccc(Oc3nc(O)c4ccncc4n3)cc2)cc1 [Example 114, 2-{4-[(4-isopropyl-phenyl)-(2,2,2-trifluoro-ethyl)-amino]-phenoxy}-pyrido[3,4-d]pyrimidin-4-ol] | 0.1 to 1 | 
12 | CC(C)c1ccc(N(C)c2ccc(Oc3nc(O)c4ccncc4n3)cc2)cc1N1CCOCC1 [Example 35, 2-{4-[(4-isopropyl-3-morpholin-4-yl-phenyl)-methyl-amino]-phenoxy}-pyrido[3,4-d]pyrimidin-4-ol] | 0.1 to 1 | 
13 | Oc1nc(Oc2ccc3c(c2)CCCN3c2ccccc2)nc2cnccc12 [Example 33, 2-(1-phenyl-1,2,3,4-tetrahydro-quinolin-6-yloxy)-pyrido[3,4-d]pyrimidin-4-ol] | 1 to 10 | 
14 | Cc1cccc(N(C)c2ccc(Oc3nc(O)c4ccncc4n3)cc2)c1 [Example 21, 2-[4-(Methyl-m-tolyl-amino)-phenoxy]-pyrido[3,4-d]pyrimidin-4-ol] | 0.1 to 1 | 
15 | Oc1nc(Oc2ccc3cnn(Cc4ccccc4)c3c2)nc2cnccc12 [Example 11, 2-(1-Benzyl-1H-indazol-6-yloxy)-pyrido[3,4-d]pyrimidin-4-ol] | 0.1 to 1 | 
16 | Oc1nc(Oc2ccc3c(ccn3C3CCCC3)c2)nc2cnccc12 [Example 31, 2-(1-cyclopentyl-1H-indol-5-yloxy)-pyrido[3,4-d]pyrimidin-4-ol] | 1 to 10 | 
17 | Oc1nc(Oc2ccc(N3CCCC(c4ccccc4)C3)cc2)nc2cnccc12 (centres unmarked) [Example 25, 2-[4-(3-phenyl-piperidin-1-yl)-phenoxy]-pyrido[3,4-d]pyrimidin-4-ol] | 0.1 to 1 | 

The remaining lines, values ahead:

Row | IC50 (JMJD2C) [µM] | IC50 [1] [µM] | SMILES
18 | 0.1 to 1 | 0.1 to 1 | CN(c1ccc(Cl)cc1)c1ccc(Oc2nc(O)c3ccncc3n2)cc1 [Example 94, 2-[4-(4-chloro-N-methylanilino)phenoxy]pyrido[3,4-d]pyrimidin-4-ol]
19 | ≤ 0.1 | 1 to 10 | CN1CCN(Cc2cccc(N(C)c3ccc(Oc4nc(O)c5ccncc5n4)cc3)c2)CC1 [Example 41, 2-(4-{methyl-[3-(4-methyl-piperazin-1-ylmethyl)-phenyl]-amino}-phenoxy)-pyrido[3,4-d]pyrimidin-4-ol]
20 | ≤ 0.1 | > 10 | Cc1cc(N2CCN(C)CC2)cc(N(C)c2ccc(Oc3nc(O)c4ccncc4n3)cc2)c1 [Example 90, 2-[4-[N,3-dimethyl-5-(4-methylpiperazin-1-yl)anilino]phenoxy]pyrido[3,4-d]pyrimidin-4-ol]
21 | ≤ 0.1 |  | CC(C)c1ccc(N(C)c2ccc(Oc3nc(O)c4ccncc4n3)cc2)nc1 [Example 34, 2-{4-[(5-isopropyl-pyridin-2-yl)-methyl-amino]-phenoxy}-pyrido[3,4-d]pyrimidin-4-ol]
22 | 1 to 10 |  | Oc1nc(Oc2ccc3ccn(Cc4ccccc4)c3c2)nc2cnccc12 [Example 8, 2-(1-Benzyl-1H-indol-6-yloxy)-pyrido[3,4-d]pyrimidin-4-ol]
23 | ≤ 0.1 |  | CN(CC1CCCc2ccccc21)c1ccc(Oc2nc(O)c3ccncc3n2)cc1 (centres unmarked) [Example 28, 2-{4-[methyl-(1,2,3,4-tetrahydro-naphthalen-1-ylmethyl)-amino]-phenoxy}-pyrido[3,4-d]pyrimidin-4-ol]
24 | 1 to 10 | > 10 | Oc1nc(Oc2ccc3c(ccn3-c3ccccc3)c2)nc2cnccc12 [Example 103, 2-(1-phenylindol-5-yl)oxypyrido[3,4-d]pyrimidin-4-ol]
25 | 1 to 10 | 0.1 to 1 | CN(c1ccc(Oc2nc(O)c3ccncc3n2)cc1)c1ccc(C(F)(F)F)cc1 [Example 87, 2-[4-[N-methyl-4-(trifluoromethyl)anilino]phenoxy]pyrido[3,4-d]pyrimidin-4-ol]
26 | 0.1 to 1 | ≤ 0.1 | CN(Cc1ccccc1)c1ccc(Oc2nc(O)c3ccncc3n2)cc1 [Example 6, 2-[4-(Benzyl-methyl-amino)-phenoxy]-pyrido[3,4-d]pyrimidin-4-ol]
27 | 0.1 to 1 | 0.1 to 1 | CN(c1ccc(Oc2nc(O)c3ccncc3n2)cc1)c1ccc(C(C)(C)O)cc1 [Example 64, 2-[4-[4-(2-hydroxypropan-2-yl)-N-methylanilino]phenoxy]pyrido[3,4-d]pyrimidin-4-ol]
28 | 0.1 to 1 |  | CN(c1ccc(Oc2nc(O)c3ccncc3n2)cc1)c1ccc(N2CCOCC2)cc1 [Example 18, 2-{4-[Methyl-(4-morpholin-4-yl-phenyl)-amino]-phenoxy}-pyrido[3,4-d]pyrimidin-4-ol]
29 | 0.1 to 1 |  | CC(C)Cc1ccc(N(C)c2ccc(Oc3nc(O)c4ccncc4n3)cc2)cc1 [Example 63, 2-[4-[N-methyl-4-(2-methylpropyl)anilino]phenoxy]pyrido[3,4-d]pyrimidin-4-ol]
30 | 0.1 to 1 |  | Cc1ccc(N(C)c2ccc(Oc3nc(O)c4ccncc4n3)cc2)cc1 [Example 20, 2-[4-(Methyl-p-tolyl-amino)-phenoxy]-pyrido[3,4-d]pyrimidin-4-ol]
31 | 0.1 to 1 |  | CC(C)c1ccc(N(c2ccc(Oc3nc(O)c4ccncc4n3)cc2)C2CCOCC2)cc1 [Example 118, 2-(4-((4-isopropylphenyl)(tetrahydro-2H-pyran-4-yl)amino)phenoxy)pyrido[3,4-d]pyrimidin-4-ol]
32 | 0.1 to 1 |  | COc1ccc(N(C)c2ccc(Oc3nc(O)c4ccncc4n3)cc2)cc1 [Example 16, 2-{4-[(4-Methoxy-phenyl)-methyl-amino]-phenoxy}-pyrido[3,4-d]pyrimidin-4-ol]
